Test results from patent US11976083B2, “Inhibitors of peptidylarginine deiminases” (Gilead Sciences, Inc., priority 2020, dated 2024).

Each compound was assayed against T1, human PAD4 (Homo sapiens, UniProt Q9UM07) (assay: In vitro PAD4 BAEE biochemical assay). Details: BAEE substrate 3 mM, 5 nM PAD4, 2 mM calcium chloride; geometric mean of multiple experiments.
T1 construct: human PAD4 (NM_012387), A2-P663, was PCR amplified; His-SUMO (N, cleaved yes); made in house; host or cells: E. coli BL21(DE3)
Summary of the method: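 Assay was run at 25 °C using 3 mM BAEE and 5 nM human PAD4 after a 30 min compound preincubation; ammonia produced over 2 h was quantified by OPA-derived fluorescence. Full inhibition was defined by 50 µM BB-Cl-Amidine, and IC50 came from variable-slope nonlinear regression.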

T1 sequence (Q9UM07 2-663): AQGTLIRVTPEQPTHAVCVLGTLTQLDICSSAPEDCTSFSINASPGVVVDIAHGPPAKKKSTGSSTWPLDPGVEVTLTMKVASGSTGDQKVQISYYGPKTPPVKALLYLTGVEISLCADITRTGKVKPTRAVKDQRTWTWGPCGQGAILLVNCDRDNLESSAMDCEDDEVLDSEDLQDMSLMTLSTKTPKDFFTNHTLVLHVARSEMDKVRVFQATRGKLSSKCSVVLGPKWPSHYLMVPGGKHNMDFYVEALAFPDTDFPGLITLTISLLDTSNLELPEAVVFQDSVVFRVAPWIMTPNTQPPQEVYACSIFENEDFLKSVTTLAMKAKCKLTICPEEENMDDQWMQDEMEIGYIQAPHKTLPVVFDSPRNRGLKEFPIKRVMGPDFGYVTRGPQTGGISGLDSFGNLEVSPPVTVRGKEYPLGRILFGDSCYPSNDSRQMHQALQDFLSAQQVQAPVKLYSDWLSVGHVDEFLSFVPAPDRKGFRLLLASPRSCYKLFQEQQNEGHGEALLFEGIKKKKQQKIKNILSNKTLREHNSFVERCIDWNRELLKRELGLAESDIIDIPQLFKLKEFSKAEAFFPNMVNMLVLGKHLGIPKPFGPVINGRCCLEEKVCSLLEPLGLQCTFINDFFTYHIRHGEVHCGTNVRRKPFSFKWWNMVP

Row | IC50 [nM] | Compound
1 | 64 | COc1cc(C(=O)N2C[C@H](N)[C@@H]3CC[C@H]2C3)cc2nc(-c3cc4ccc5nc4n3CCCCCC[C@@](F)(c3ccccn3)C(=O)N[C@@H]5C)n(C3CC3)c12 (single isomer, unassigned) [Example 944, (8˜{R},11˜{R})-17-[5-[(1˜{S},4˜{R},5˜{R})-4-amino-2-azabicyclo[3.2.1]octane-2-carbonyl]-1-cyclopropyl-7-methoxy-benzimidazol-2-yl]-8-fluoro-11-methyl-8-(2-pyridyl)-1,10,19-triazatricyclo[10.5.2.0^{15,18}]nonadeca-12(19),13,15(18),16-tetraen-9-one]
2 | 36 | COc1cc(C(=O)N2[C@H]3CC[C@@H]2[C@H](N)C3)cc2nc(-c3cc4ccc5nc4n3CCCCOCC(=O)N[C@@H]5C)c(C)n12 [Example 324, (10~{R})-16-[7-[(1~{R},2~{R},4~{S})-2-amino-7-azabicyclo[2.2.1]heptane-7-carbonyl]-5-methoxy-3-methyl-imidazo[1,2-a]pyridin-2-yl]-10-methyl-6-oxa-1,9,18-triazatricyclo[9.5.2.0^{14,17}]octadeca-11(18),12,14(17),15-tetraen-8-one]
3 | 59 | COc1cc(C(=O)N2C[C@H](N)[C@@H]3CC[C@H]2C3)cc2nc(-c3cc4ccc5nc4n3CCCCCc3cc(Cl)ccc3C(=O)N[C@@H]5C)n(C)c12 [Example 901, (2~{R})-17-[5-[(1~{S),4~{R}, 5~{R})-4-amino-2-azabicyclo [3.2.1]octane-2-carbonyl]-7-methoxy-1-methyl-benzimidazol-2-yl]-8-chloro-2-methyl-3,16,22-triazatetracyclo [14.5.2.0^{5,10}.0^{19,23}] tricosa-1(22),5(10),6,8,17, 19(23),20-heptaen-4-one]
4 | 101 | COc1cc(C(=O)N2CC[C@@H](OC(F)F)[C@@H](N)C2)cc2nc(-c3cc4ccc5nc4n3CCCCCc3nccnc3C(=O)N[C@@H]5C)n(C)c12 [Example 7, (2~{R})-17-[5-[(3~{S},4~{R})-3-amino-4-(difluoromethoxy)piperidine-1-carbonyl]-7-methoxy-1-methyl-benzimidazol-2-yl]-2-methyl-3,6,9,16,22-pentazatetracyclo[14.5.2.0^{5,10}.0^{19, 23}]tricosa-1(22),5(10),6,8,17,19(23),20-heptaen-4-one]
5 | 55 | COc1cc(C(=O)N2[C@H]3CC[C@@H]2[C@H](N)C3)cc2nc(-c3cc4ccc5nc4n3CCCCCCCCCC(=O)N[C@@H]5C)c(C)n12 [Example 287, (13~{R})-19-[7-[(1~{R},2~{R},4~{S})-2-amino-7-azabicyclo[2.2.1]heptane-7-carbonyl]-5-methoxy-3-methyl-imidazo[1,2-a]pyridin-2-yl]-13-methyl-1,12,21-triazatricyclo[12.5.2.0^{17,20}]henicosa-14(21),15,17(20),18-tetraen-11-one]
6 | 32 | COc1cc(C(=O)N2[C@H]3CC[C@@H]2[C@H](N)C3)cc2nc(-c3cc4ccc5nc4n3CCCCCCC(=O)N[C@@H]5C)n(C3CC3)c12 [Example 254, (10~{R})-16-[5-[(1~{R},2~{R},4~{S})-2-amino-7-azabicyclo[2.2.1]heptane-7-carbonyl]-1-cyclopropyl-7-methoxy-benzimidazol-2-yl]-10-methyl-1,9,18-triazatricyclo[9.5.2.0^{14,17}]octadeca-11(18),12,14(17),15-tetraen-8-one]
7 | 45 | COc1cc(C(=O)N2[C@H]3CC[C@@H]2[C@H](N)C3)cc2nc(-c3cc4ccc5nc4n3CCCCCC(C)(C)C(=O)N[C@@H]5C)n(C)c12 [Example 102, (10~{R})-16-[5-[(1~{R},2~{R},4~{S})-2-amino-7-azabicyclo[2.2.1]heptane-7-carbonyl]-7-methoxy-1-methyl-benzimidazol-2-yl]-7,7,10-trimethyl-1,9,18-triazatricyclo[9.5.2.0^{14,17}]octadeca-11(18),12,14(17),15-tetraen-8-one]
8 | 27 | COc1cc(C(=O)N2C[C@H](N)[C@@H]3CC[C@H]2C3)cc2nc(-c3cc4ccc5nc4n3CCCCC[C@]3(F)C[C@H]3C(=O)NC5(C)C)n(C)c12 [Example 933, (5~{S},7~{S})-14-[5-[(1~{S},4~{R},5~{R})-4-amino-2-azabicyclo[3.2.1]octane-2-carbonyl]-7-methoxy-1-methyl-benzimidazol-2-yl]-7-fluoro-2,2-dimethyl-3,13,19-triazatetracyclo[11.5.2.0^ {5,7}.0^{16,20}]icosa-1(18), 14,16,19-tetraen-4-one]
9 | 384 | COc1cc(C(=O)N2C[C@@H]3C[C@@H]3[C@@H](N)C2)cc2nc(-c3cc4ccc5nc4n3CCCCCCC(C)(C)C(=O)N[C@@H]5C)n(C)c12 [Example 535, (11~{R})-17-[5-[(1~ {R},5~{R},6~{S})-5-amino-3-azabicyclo[4.1.0]heptane-3-carbonyl]-7-methoxy-1-methyl-benzimidazol-2-yl]-8,8,11-trimethyl-1,10,19-triazatricyclo[10.5.2.0^ {15,18}]nonadeca-12(19),13,15(18),16-tetraen-9-one]
10 | 74 | COc1cc(C(=O)N[C@H]2CNCC[C@@H]2F)cc2nc(-c3cc4ccc5nc4n3CCCCCc3c(noc3C)C(=O)N[C@@H]5C)n(C)c12 [Example 398, 2-[(2~{R})-2,8-dimethyl-4-oxo-7-oxa-3,6,15,21-tetrazatetracyclo[13.5.2.0^{5,9}.0^{18,22}]docosa-1(21),5,8,16,18(22),19-hexaen-16-yl]-~{N}-[(3~{S},4~{S})-4-fluoro-3-piperidyl]-7-methoxy-1-methyl-benzimidazole-5-carboxamide]
11 | 40 | COc1cc(C(=O)N2[C@H]3CC[C@@H]2[C@H](N)C3)cc2nc(-c3cc4ccc5nc4n3CC3(CCCCCC(=O)N[C@@H]5C)CC3)n(C)c12 [Example 139, (11~{R})-17-[5-[(1~{R},2~{R},4~{S})-2-amino-7-azabicyclo[2.2.1]heptane-7-carbonyl]-7-methoxy-1-methyl-benzimidazol-2-yl]-11-methyl-spiro[1,10,19-triazatricyclo[10.5.2.0^{15,18}]nonadeca-12(19),13,15(18),16-tetraene-3,1′-cyclopropane]-9-one]
12 | 40 | C[C@H]1NC(=O)[C@@H]2C[C@@H]2CCCCCn2c(-c3nc4cc(C(=O)N[C@H]5CNCC[C@@H]5F)c(F)cc4n3C)cc3ccc1nc32 [Example 522, 6-fluoro-~{N}-[(3~ {S},4~{S})-4-fluoro-3-piperidyl]-1-methyl-2-[(2~{R},5~{R},7~{S})-2-methyl-4-oxo-3,13,19-triazatetracyclo[11.5.2.0^ {5,7).0^{16,20}]icosa-1(19),14,16(20), 17-tetraen-14-yl] benzimidazole-5-carboxamide]
13 | 13 | C[C@H]1NC(=O)c2nc3ccccc3nc2CCCCCn2c(-c3nc4cc(C(=O)N5C[C@H](N)[C@@H]6CC[C@H]5C6)cc(F)c4n3C3CC3)cc3ccc1nc32 [Example 839, (2~{R})-21-[5-[(1~ {S},4~{R},5~{R})-4-amino-2-azabicyclo[3.2.1]octane-2-carbonyl]-1-cyclopropyl-7-fluoro-benzimidazol-2-yl]-2-methyl-3,6,13,20,26-pentazapentacyclo[18.5.2.0^ {5,14}.0^{7,12}.0^ {23,27}]heptacosa-1(26),5(14), 6,8,10,12,21,23(27),24-nonaen-4-one]
14 | 18 | C[C@H]1NC(=O)c2c(F)cncc2CCCCCn2c(-c3nc4cc(C(=O)N[C@H]5CNCC[C@@H]5F)c(F)cc4n3C3CC3)cc3ccc1nc32 [Example 355, 1-cyclopropyl-6-fluoro-2-[(2~{R})-6-fluoro-2-methyl-4-oxo-3,8,16,22-tetrazatetracyclo[14.5.2.0^{5,10}.0^{19,23}]tricosa-1(22),5,7,9,17,19(23),20-heptaen-17-yl]~{N}-[(3~{S},4~{S})-4-fluoro-3-piperidyl]benzimidazole-5-carboxamide]
15 | 176 | COc1cc(C(=O)N2[C@H]3CC[C@@H]2[C@H](N)[C@H](OC(F)F)C3)cc2nc(-c3cc4ccc5nc4n3CCCCC[C@@H]3C[C@H]3C(=O)N[C@@H]5C)n(C)c12 [Example 581, (2~{R},5~{R},7~{R})-14-[5-[(1~{R},2~{S},3~ {R},5~{S})-2-amino-3-(difluoromethoxy)-8-azabicyclo[3.2.1]octane-8-carbonyl]-7-methoxy-1-methyl-benzimidazol-2-yl]-2-methyl-3,13,19-triazatetracyclo[11.5.2.0^ {5,7}.0^{16,20}]icosa-1(19), 14,16(20),17-tetraen-4-one]
16 | 17 | C[C@H]1NC(=O)[C@@H]2C[C@H]2CCCCCn2c(-c3nc4cc(C(=O)N5C[C@H](N)[C@@H]6CC[C@H]5C6)cc(OC(F)F)c4n3C3CC3)cc3ccc1nc32 [Example 759, (2~{R},5~{R},7~{R})-14-[5-[(1~{S},4~{R},5~{R})-4-amino-2-azabicyclo[3.2.1]octane-2-carbonyl]-1-cyclopropyl-7-(difluoromethoxy)benzimidazol-2-yl]-2-methyl-3,13,19-triazatetracyclo[11.5.2.0^ {5,7}.0^{16,20}]icosa-1(19), 14,16(20),17-tetraen-4-one]
17 | 70 | C[C@H]1NC(=O)c2ccc(Cl)nc2CCCCCn2c(-c3nc4cc(C(=O)N5C[C@H](N)[C@@H]6CC[C@H]5C6)cc(OC(F)F)c4n3C3CC3)cc3ccc1nc32 [Example 760, (2~{R})-17-[5-[(1~{S},4~{R}, 5~{R})-4-amino-2-azabicyclo [3.2.1]octane-2-carbonyl]-1-cyclopropyl-7-(difluoromethoxy)benzimidazol-2-yl]-8-chloro-2-methyl-3,9,16,22-tetrazatetracyclo [14.5.2.0^{5,10}.0^{19,23}] tricosa-1(22),5(10), 6,8,17,19(23),20-heptaen-4-one]
18 | 213 | COc1cc(C(=O)N2CCC[C@@H](N)C2)cc2nc(-c3cc4ccc5nc4n3CCCCCCNC(=O)c3cccc(C)c3-5)n(C)c12 [Example 57, 17-[5-[(3~{R})-3-aminopiperidine-1-carbonyl]-7-methoxy-1-methyl-benzimidazol-2-yl]-3-methyl-9,16,22-triazatetracyclo[14.5.2.0^{2,7}.0^{19,23}] tricosa-1(22),2,4,6,17,19(23),20-heptaen-8-one]
